Data from the supplement of paper PMC11451515.

Test system: SEM cells
Test: cell viability relative to DMSO control; higher = less cytotoxic
Conditions: 48 h
Outline: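 NOMO1 or SEM cells were plated at 500 cells/well and P12-Ichikawa cells at 1000 cells/well in 1536-well plates (5 μl), after each leukemia line had been adapted for at least four passages in each medium. Pin dosing delivered library compounds in DMSO at 11 threefold concentrations, 47 μM to 0.79 nM. CellTiter-Glo One luminescence was read after 48 h at 37°C. Viability is reported as a per-plate percentage of DMSO wells, with cell-free wells as background.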

[1] = HPLM + 10% dialyzed FBS, 0.000781 µM
[2] = HPLM + 10% dialyzed FBS, 0.00234 µM
[3] = HPLM + 10% dialyzed FBS, 0.00702 µM
[4] = HPLM + 10% dialyzed FBS, 0.0211 µM
[5] = HPLM + 10% dialyzed FBS, 0.0632 µM
[6] = HPLM + 10% dialyzed FBS, 0.19 µM
[7] = HPLM + 10% dialyzed FBS, 0.569 µM
[8] = HPLM + 10% dialyzed FBS, 1.71 µM
[9] = HPLM + 10% dialyzed FBS, 5.12 µM
[10] = HPLM + 10% dialyzed FBS, 15.4 µM
[11] = HPLM + 10% dialyzed FBS, 46.1 µM
[12] = RPMI 5 mM glucose + 10% FBS, 0.000781 µM
[13] = RPMI 5 mM glucose + 10% FBS, 0.00234 µM
[14] = RPMI 5 mM glucose + 10% FBS, 0.00702 µM
[15] = RPMI 5 mM glucose + 10% FBS, 0.0211 µM
[16] = RPMI 5 mM glucose + 10% FBS, 0.0632 µM
[17] = RPMI 5 mM glucose + 10% FBS, 0.19 µM
[18] = RPMI 5 mM glucose + 10% FBS, 0.569 µM
[19] = RPMI 5 mM glucose + 10% FBS, 1.71 µM
[20] = RPMI 5 mM glucose + 10% FBS, 5.12 µM
[21] = RPMI 5 mM glucose + 10% FBS, 15.4 µM
[22] = RPMI 5 mM glucose + 10% FBS, 46.1 µM
[23] = RPMI 5 mM glucose + 10% dialyzed FBS, 0.000781 µM
[24] = RPMI 5 mM glucose + 10% dialyzed FBS, 0.00234 µM
[25] = RPMI 5 mM glucose + 10% dialyzed FBS, 0.00702 µM
[26] = RPMI 5 mM glucose + 10% dialyzed FBS, 0.0211 µM
[27] = RPMI 5 mM glucose + 10% dialyzed FBS, 0.0632 µM
[28] = RPMI 5 mM glucose + 10% dialyzed FBS, 0.19 µM
[29] = RPMI 5 mM glucose + 10% dialyzed FBS, 0.569 µM
[30] = RPMI 5 mM glucose + 10% dialyzed FBS, 1.71 µM
[31] = RPMI 5 mM glucose + 10% dialyzed FBS, 5.12 µM
[32] = RPMI 5 mM glucose + 10% dialyzed FBS, 15.4 µM
[33] = RPMI 5 mM glucose + 10% dialyzed FBS, 46.1 µM

Row | Structure (SMILES) | cell viability [1] | cell viability [2] | cell viability [3] | cell viability [4] | cell viability [5] | cell viability [6] | cell viability [7] | cell viability [8] | cell viability [9] | cell viability [10] | cell viability [11] | cell viability [12] | cell viability [13] | cell viability [14] | cell viability [15] | cell viability [16] | cell viability [17] | cell viability [18] | cell viability [19] | cell viability [20] | cell viability [21] | cell viability [22] | cell viability [23] | cell viability [24] | cell viability [25] | cell viability [26] | cell viability [27] | cell viability [28] | cell viability [29] | cell viability [30] | cell viability [31] | cell viability [32] | cell viability [33]
1 | Cc1n[nH]c2ccc(-c3cncc(OC[C@@H](N)Cc4c[nH]c5ccccc45)c3)cc12 | 98.9% | 104% | 89.8% | 97.8% | 83.7% | 40.6% | 32.9% | 19.2% | 2.11% | 0.908% | 1.79% | 94.9% | 111% | 88.6% | 102% | 95.7% | 67% | 59.7% | 25% | 2.35% | 0.602% | 1.49% | 103% | 99.4% | 84.2% | 92.3% | 89% | 56.1% | 47.7% | 26.6% | 2.83% | 0.892% | 1.9%
2 | CCOC(=O)c1c(/C(C#N)=C\N)c2ccc(Cl)c(Cl)c2n1C | 85.8% | 86.1% | 85.2% | 96.9% | 76.5% | 94.1% | 95.5% | 81.7% | 92.6% | 83.4% | 57.4% | 86.7% | 99.2% | 89.9% | 94.1% | 84.6% | 89.7% | 97.8% | 94.4% | 89.6% | 84% | 62% | 80% | 97.7% | 81.8% | 87.8% | 71.6% | 89.3% | 102% | 84.4% | 94.8% | 75.2% | 76.9%
3 | CCCCC(F)(F)[C@@]1(O)CC[C@H]2[C@@H](CC(=O)[C@@H]2CCCCCCC(=O)O)O1 | 120% | 124% | 123% | 121% | 112% | 110% | 118% | 116% | 101% | 91.6% | 98.6% | – | – | – | – | – | – | – | – | – | – | – | – | – | – | – | – | – | – | – | – | – | –
4 | CN1CCN(CC1)C/2=N/C3=CC=CC=C3NC4=C2C=C(C)S4 | 91% | 105% | 114% | 106% | 102% | 119% | 115% | 114% | 117% | 119% | 105% | 99.3% | 97.4% | 87.4% | 88.6% | 96.2% | 104% | 95.5% | 94.5% | 101% | 94.2% | 88.6% | 95.6% | 99.3% | 105% | 89.4% | 97.1% | 118% | 112% | 110% | 96% | 100% | 93.3%
5 | CC1(C)CCC(=C(\C1)C2=CC=C(Cl)C=C2)/CN3CCN(CC3)C4=CC(=C(C=C4)C(=O)N[S+]([O-])(=O)C5=CC=C(NCC6CCOCC6)C(=C5)[N+]([O-])=O)OC7=CN=C8[NH]C=CC8=C7 | 104% | 95.1% | 99.3% | 62.7% | 43.7% | 12.6% | 8.25% | 7.7% | 7.49% | 7.18% | 5.72% | 124% | 105% | 123% | 76.2% | 70% | 20.3% | 11.1% | 7.11% | 6.79% | 5.86% | 4.71% | 102% | 90.8% | 88.3% | 53.8% | 38% | 16.5% | 8.07% | 6.59% | 6.67% | 5.3% | 4.75%
6 | COc1ccccc1OCC(O)CN1CCN(CC(=O)Nc2c(C)cccc2C)CC1 (centres undefined) | 81.9% | 101% | 98% | 121% | 126% | 123% | 111% | 118% | 136% | 130% | 136% | 104% | 135% | 122% | 128% | 134% | 148% | 123% | 142% | 134% | 129% | 131% | 115% | 128% | 114% | 136% | 125% | 135% | 137% | 121% | 132% | 130% | 126%
7 | O=C(O)C(=O)Nc1cccc(-c2nnn[nH]2)c1 | 90.2% | 98.2% | 108% | 112% | 109% | 116% | 76.4% | 122% | 132% | 128% | 119% | 91.3% | 112% | 114% | 104% | 106% | 106% | 75.5% | 119% | 120% | 110% | 117% | 98.8% | 101% | 111% | 116% | 119% | 105% | 81.5% | 119% | 132% | 107% | 102%
8 | CC(C)C[C@@H](C(=O)N[C@H](C(=O)OC1CCCC1)c1ccccc1)[C@H](O)C(=O)NO | 125% | 119% | 123% | 136% | 120% | 122% | 117% | 89.2% | 105% | 104% | 38% | – | – | – | – | – | – | – | – | – | – | – | 113% | 113% | 111% | 114% | 102% | 106% | 101% | 72.8% | 83.4% | 65.9% | 23.2%
9 | CON(C)C(=O)N1\N=C(/S[C@]1(CCCN)C2=CC=CC=C2)C3=CC(=CC=C3F)F | 23.7% | 22.9% | 24.5% | 28.8% | 26.4% | 27.4% | 30.7% | 27% | 29.9% | 31.7% | 24.8% | 20.8% | 20.4% | 20.1% | 22.6% | 22.8% | 21.5% | 25.6% | 18.8% | 21.3% | 20.4% | 23.8% | 21.2% | 21.1% | 19.9% | 21% | 21.3% | 23.2% | 23.2% | 24.6% | 23.9% | 20.6% | 21.6%
10 | N[S+](=O)([O-])c1cc2c(cc1Cl)NCN[S+]2(=O)[O-] | 92.5% | 102% | 101% | 94.6% | 104% | 111% | 114% | 109% | 114% | 121% | 107% | 96.2% | 115% | 109% | 104% | 110% | 107% | 114% | 119% | 124% | 116% | 120% | 88.4% | 100% | 112% | 124% | 107% | 124% | 107% | 134% | 117% | 115% | 151%
11 | CC/C(=C(\c1ccccc1)c1ccc(OCCN(C)C)cc1)c1ccccc1 | 80.9% | 97.6% | 107% | 103% | 74.6% | 102% | 94% | 108% | 96.3% | 86.2% | 16.8% | 98.1% | 99.7% | 95.8% | 93.8% | 66.7% | 95% | 99.2% | 99.9% | 90.5% | 91.6% | 12.5% | 87.4% | 87.2% | 102% | 95.2% | 81.7% | 115% | 99.4% | 96.3% | 95.2% | 93.9% | 13%
12 | O=C(c1ccc(C(=O)N2CCC(N3CCCC3)CC2)c(Nc2ccccc2)c1)N1CCC(N2CCCC2)CC1 | 119% | 111% | 115% | 94.8% | 116% | 113% | 107% | 107% | 103% | 98.7% | 96.4% | 112% | 106% | 109% | 104% | 105% | 115% | 117% | 102% | 89% | 102% | 103% | 80.7% | 91.2% | 102% | 104% | 98% | 102% | 104% | 112% | 101% | 88.5% | 82.6%
13 | CCCCc1ccc(N[S+](=O)([O-])c2ccc(C)c(C(=O)N3CCN(c4cccc(C)c4C)CC3)c2)cc1 | – | – | – | – | – | – | – | – | – | – | – | 120% | 124% | 138% | 17.1% | 129% | 118% | 137% | 126% | 119% | 106% | 98.2% | 117% | 96.2% | 127% | 21.2% | 118% | 118% | 106% | 117% | 107% | 117% | 84.9%
14 | COc1cc2nc(N3CCN(C(=O)c4ccco4)CC3)nc(N)c2cc1OC | 54.4% | 61.9% | 81.8% | 86.4% | 89.7% | 85.8% | 73% | 91.9% | 87% | 16.4% | 13.6% | 76.2% | 78.4% | 90.6% | 80.6% | 104% | 96.2% | 98.4% | 101% | 105% | 13.5% | 8.2% | 78.2% | 88.3% | 93.8% | 104% | 109% | 81.2% | 91% | 91.4% | 80.2% | 14% | 11.9%
15 | COC1=CC(=C2C(=O)N(COC/3=C/C(=O)N4\C=C/C=C(OCCN5CCCCC5)\C4=N3)[S+]([O-])(=O)C2=C1)C(C)C | 116% | 119% | 128% | 131% | 103% | 135% | 108% | 83.4% | 148% | 128% | 114% | 119% | 132% | 125% | 129% | 134% | 134% | 106% | 71% | 137% | 143% | 102% | 105% | 113% | 120% | 123% | 114% | 125% | 82.9% | 63.5% | 113% | 114% | 97.5%
16 | O=P1(NCCCl)OCCCN1CCCl (centres undefined) | 88.9% | 85.6% | 92.8% | 101% | 76.1% | 81.2% | 78% | 84.7% | 81.3% | 63% | 12.5% | 92.6% | 99.5% | 101% | 103% | 96.8% | 94.4% | 97.1% | 94.2% | 105% | 57.3% | 7.96% | 87.6% | 86% | 94.8% | 81.9% | 65.5% | 69.1% | 60.6% | 69.5% | 66.4% | 45% | 10.8%
